# Paper PMC8850458, “The AUTOTAC chemical biology platform for targeted protein degradation via the autophagy-lysosome system” (Nature Communications, 2022)
# Where “and” joins values, the source holds several entries; their conditions need not be identical. Equal entries are not always repeated. Where two headings read alike, the source gives them in different places.
# Tests used:
# [1] = system: LNCaP cells; assay: WST-based cell viability assay in LNCaP cells; details: LNcaP, duplicates
# [2] = in vitro; details: human
# [3] = system: LNCaP cells; details: human
# [4] = biological target: tauP301L (Homo sapiens, UniProt P10636, P618L); assay: WB degradation of tauP301L in SH-SY5Y-tauP301L cells; type: cell-based; details: densitometry, dosage degradation, SH-SY5Y-Tau-TiFC; for Tau normalized to GAPDH and control, AVG %: average of N=3
# Sequence of tauP301L (P10636 1-441 isoform P10636-8 P301L): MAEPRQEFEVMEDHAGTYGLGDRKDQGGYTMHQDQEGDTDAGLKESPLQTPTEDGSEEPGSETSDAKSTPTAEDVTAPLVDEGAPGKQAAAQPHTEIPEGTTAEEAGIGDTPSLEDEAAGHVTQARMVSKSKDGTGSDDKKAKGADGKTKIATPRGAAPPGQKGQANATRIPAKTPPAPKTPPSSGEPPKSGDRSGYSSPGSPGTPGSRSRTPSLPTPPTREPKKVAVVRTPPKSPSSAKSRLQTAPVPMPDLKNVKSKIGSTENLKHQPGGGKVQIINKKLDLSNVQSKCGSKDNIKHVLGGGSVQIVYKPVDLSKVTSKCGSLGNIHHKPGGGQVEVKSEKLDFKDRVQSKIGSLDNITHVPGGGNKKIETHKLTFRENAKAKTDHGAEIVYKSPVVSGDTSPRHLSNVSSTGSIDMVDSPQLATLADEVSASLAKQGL
# Method: Adherent cells were washed with phosphate-buffered saline (PBS) and cell pellets were lysed in SDS-based sample buffer (277.8 mM Tris-HCI, pH 6.8, 4.4% LDS, 44.4% (v/v) glycerol) containing beta-mercaptoethanol. Alternatively, cell pellets or protein supernatants were lysed in 5X Laemmli sample buffer. Whole-cell lysates were separated using SDS-PAGE, and transferred onto polyvinyllidene difluoride membranes at 100 V for 2 h at 4 °C. The membrane was incubated with a blocking solution consisting 4% skim milk in PBS solution for 30 min at room temperature and incubated with primary antibodies overnight, followed by incubation with host-specific HRP-conjugated secondary antibodies (1:10000 dilution). For signal detection, the membrane was developed with a mixture of ECL solution (Thermo Fisher Scientific) using X-ray films. Densitometry of developed bands was measured and analyzed with ImageJ (NIH, Bethesda).
# [5] = system: mutant HttQ103 and LC3; assay: ICC of HDQ103-GFP and LC3 co-localization in HeLa cells; type: cell-based; details: Fig. S7k, test substances given +HCQ; for HttQ103-GFP / LC3 colocalization, AVG of cells per 50 cells: control 1; for HttQ103-GFP / LC3 colocalization, percentage AVG: control 2
# Method: Cells were cultured on coverslips coated with poly-L-lysine (Sigma) to observe cellular localization of proteins. Using 4% paraformaldehyde in PBS (pH 7.4), the cells were fixed for 15 min at room temperature and washed three times for 5 min with PBS. After fixing, the cells were permeabilized with 0.5% Triton X-100 in PBS solution for 15 min and washed three times with PBS for 5 min. The cells were blocked containing 2% BSA in PBS solution for 1 h at room temperature. Subsequently, the cells were incubated with primary antibody diluted in 2% BSA/PBS solution overnight at 4 °C, followed by washing the cells three times for 10 min with PBS and incubated with Alexa Fluor-conjugated secondary antibody diluted in 2% BSA/PBS for 30 min at room temperature. Using a DAPI-containing mounting medium (Vector Laboratories), the coverslips were mounted on glass slides. Confocal images were taken by laser scanning confocal microscope 510 Meta (Zeiss) and analyzed by Zeiss LSM Image Browser (ver. 4.2.0.121). […] Quantification results are shown as mean ± S.D. or S.E.M. of three independent experiments […]
# Supplementary Fig. 7. AUTOTACs selectively degrade pathological mutant huntingtin. […]
# (j) ICC of HeLa cells […]
# expressing HDQ103-GFP with the indicated compounds (1 μM, 24 h) treated with HCQ (10 μM, 24 h). Scale bar, 10 μm. (k) Quantification of j (n=3 biologically independent experiments each counting 50 cells). P-values (from a two-sided unpaired t-test): *P < 0.0432. Data are presented as mean values ± SD where relevant. Source data are provided with this paper. […]
# [6] = system: tauP301L inclusion bodies; assay: ICC of TauP301L-GFP autophagic targeting in HeLa cells; type: cell-based; details: Fig. 5k, HCQ alone
# Method: Fig. 5 Selective degradation of pathological aggregation-prone tau species by aggregate-binding AUTOTAC. a–c WB in SH-SY5Y-tauP301L cells treated with PBA-1105, PBA, or YTK-1105 at the indicated concentrations. d Densitometry of (a, b, and c) (n = 3 biologically independent experiments). e–g Same as (a–c) but with Anle138b-F105, Anle138b, or YTK-105. (h) Densitometry of (e, f, and g) (n = 3 biologically independent experiments). i WB in SH-SY5Y-tauP301L cells treated with PBA-1105 (0.1 μM) at the indicated time points. j ICC of HeLa cells expressing recombinant TauP301L-GFP and treated with the indicated compounds (1 μM, 24 h) and HCQ (10 μM, 24 h). Scale bar, 10 μm. k Quantification of (j) (n = 3 biologically independent experiments each counting 50 cells). l In vivo oligomerization assay in SH-SY5Y-tauP301L cells treated with okadaic acid (15 nM, 24 h) and the indicated compounds (0.1 μM, 24 h). m Triton X-100-fractionation assay in SH-SY5Y-tauP301L cells treated with a combination of HCQ (10 μM, 24 h), okadaic acid (15 nM, 24 h) or PBA-1105 (0.1 μM, 24 h). Data are presented as mean values ± SD where relevant. P-values (from a two-sided unpaired t test): **P < 0.00821. Source data are provided with this paper.
# Cells were cultured on coverslips coated with poly-L-lysine (Sigma) to observe cellular localization of proteins. Using 4% paraformaldehyde in PBS (pH 7.4), the cells were fixed for 15 min at room temperature and washed three times for 5 min with PBS. After fixing, the cells were permeabilized with 0.5% Triton X-100 in PBS solution for 15 min and washed three times with PBS for 5 min. The cells were blocked containing 2% BSA in PBS solution for 1 h at room temperature. Subsequently, the cells were incubated with primary antibody diluted in 2% BSA/PBS solution overnight at 4 °C, followed by washing the cells three times for 10 min with PBS and incubated with Alexa Fluor-conjugated secondary antibody diluted in 2% BSA/PBS for 30 min at room temperature. Using a DAPI-containing mounting medium (Vector Laboratories), the coverslips were mounted on glass slides. Confocal images were taken by laser scanning confocal microscope 510 Meta (Zeiss) and analyzed by Zeiss LSM Image Browser (ver. 4.2.0.121). […] Quantification results are shown as mean ± S.D. or S.E.M. of three independent experiments
# [7] = WST assay viability relative to con = 100
compound,measurement,setting,value
C=CC1(C)OC(=O)N(c2cc(Cl)cc(Cl)c2)C1=O (centres unmarked) [Vinclozolin],WST assay raw reading,[1]; 0.01uM,2.034 and 2.182
same,WST assay raw reading,[1]; 0.1uM,1.931 and 2.185
same,WST assay raw reading,[1]; 1uM,1.901 and 2.054
same,WST assay raw reading,[1]; 10uM,1.962 and 2.18
same,WST assay raw reading,[1]; 50uM,1.999 and 2.276
same,WST assay raw reading,[1]; 100uM,2.333 and 2.115
same,viability at 0.01 µM,[2]; [7],96.4%
same,viability at 0.1 µM,[2]; [7],91.3%
same,viability at 1 µM,[2]; [7],89.8%
same,viability at 10 µM,[2]; [7],92.8%
same,viability at 50 µM,[2]; [7],94.7%
same,viability at 100 µM,[2]; [7],111%
same,viability at 0.01 µM,"[2]; WST assay viability, AVG %",100%
same,viability at 0.1 µM,"[2]; WST assay viability, AVG %",97.6%
same,viability at 1 µM,"[2]; WST assay viability, AVG %",93.6%
same,viability at 10 µM,"[2]; WST assay viability, AVG %",98.3%
same,viability at 50 µM,"[2]; WST assay viability, AVG %",102%
same,viability at 100 µM,"[2]; WST assay viability, AVG %",106%
same,WST assay viability relative to con = 100,[3]; 0.01 µM,103.812
same,WST assay viability relative to con = 100,[3]; 0.1 µM,103.962
same,WST assay viability relative to con = 100,[3]; 1 µM,97.4197
same,WST assay viability relative to con = 100,[3]; 10 µM,103.712
same,WST assay viability relative to con = 100,[3]; 50 µM,108.507
same,WST assay viability relative to con = 100,[3]; 100 µM,100.466
"Brc1cccc(-c2cc(-c3ccc4c(c3)OCO4)[nH]n2)c1 [Anle138b, reference compound]","Tau normalized to GAPDH and control, AVG %",[4]; 1 nM,90.8031%
same,remaining activity at 0.001 µM,"[4]; 1 nM, read-out: (Tau normalized to GAPDH) normalized to control, percentage (individual replicates N=1, N=2, N=3)",89.3%
same,"Tau normalized to GAPDH and control, AVG %",[4]; 10 nM,101.352%
same,"Tau normalized to GAPDH and control, AVG %",[4]; 100 nM,84.5794%
same,"Tau normalized to GAPDH and control, AVG %",[4]; 1 uM,69.922%
same,"Tau normalized to GAPDH and control, AVG %",[4]; 10uM,83.6402%
same,"HttQ103-GFP / LC3 colocalization, AVG of cells per 50 cells",[5],21
same,"HttQ103-GFP / LC3 colocalization, percentage AVG",[5],42
CCN(CCO)CCCC(C)Nc1ccnc2cc(Cl)ccc12 (centres unmarked) [HCQ],"TauP301L-GFP / LC3 colocalization, AVG of cells per 50 cells",[6],11.3333
same,"TauP301L-GFP / LC3 colocalization, percentage AVG",[6],22.6667 percentage
same,"TauP301L-GFP / LC3 colocalization, cells counted per 50 cells (individual replicates)",[6]; count out of 50 cells,15 and 7 and 12
same,"HttQ103-GFP / LC3 colocalization, AVG of cells per 50 cells",[5],14.6667
same,"HttQ103-GFP / LC3 colocalization, percentage AVG",[5],29.3333
same,"HttQ103-GFP / LC3 colocalization, cells counted per 50 cells",[5]; single experiments,13 and 17 and 14
